Reference: US20090054500A1, “Composition and methods useful in preventing cardiac hypertrophy” (The Brigham and Women's Hospital, Inc., priority 2005, published 2009)
Values joined by “and” are separate entries in the source; they are usually repeats but may differ in a detail not shown here. Equal values may be shown once. Read-outs that look alike come from different tables or passages of the source.

Assays:
[1] = tested on: mouse cardiomyoctes
Procedure: Cell hypertrophy was determined by the incorporation of ^3H-leucine.

[2] = tested on: gridlock phenotype associated with mutations in the CHF1 gene in zebrafish; settings: Peterson, et al., Nat. Biotechnol. 22:595-599 (2004); cited from earlier work
[3] = tested on: cardiomyocytes; settings: cardiomyocytes in vitro
[4] = tested on: VEGF; settings: Peterson, et al., Nat. Biotechnol. 22:595 (2004); cited from earlier work

COc1ccc(SCCc2ccncc2)cc1.Cl [GS4012, 4-(2-(4-Methoxyphenylsulfanyl)ethyl)pyridine, HCl]
incorporation of 3H-leucine (cell hypertrophy), mean ([1]; Table 2, GS4012 + FCS, mean of 12 tests): 340.5825 counts per minute | incorporation of 3H-leucine (cell hypertrophy), mean ([1]; Table 2, GS4012, no FCS, mean of 12 tests): 397.6667 counts per minute | incorporation of 3H-leucine (cell hypertrophy), mean ([1]; Table 3, WT, GS4012 2.5 μg/ml, no FCS, mean of 8 tests, HCl): 329.4 counts per minute and 329.37 counts per minute | incorporation of 3H-leucine (cell hypertrophy), mean ([1]; Table 3, WT, GS4012 + FCS, mean of 8 tests, HCl): 419.7925 counts per minute and 419.8 counts per minute | FCS induction of cardiomyocyte proliferation when GS4012 was present ([1]; cpm for vehicle+GS4012 compared with vehicle+GS4012+FCS): did not occur | effect on gridlock phenotype [2]: suppresses the gridlock phenotype | effect on phenylephrine-induced hypertrophy [3]: prevent phenylephrine-induced hypertrophy | VEGF and VEGF-mediated vessel formation [4]: induces
